Like-named read-outs stand apart in the source and are kept apart here.
Key:
MCF-7 cells [1] = assay: MTT cytotoxicity assay in MCF-7 cells; type: cell-based, human; settings: means ± sd, n = 3
Protocol: The in vitro anticancer activity of the designed coumarin-thiosemicarbazones and coumarin-thiazolidine-4-one hybrids against MCF-7 cells was tested using the MTT assay, and 5-fluorouracil (5-FU) was used as the reference drug. The tested compounds were used in different concentrations, and cell survival was determined after incubation for 48 h as reported. The cytotoxic activity is represented in Table 1 as IC50 (µM) values.
(§1) MCF-7 breast cancer cell line (ATCC® HTB-22™) plus non-tumorigenic epithelial cell line (MCF 10, ATCC® CRL-10317™) were supplied from VACSERA (Cairo, Egypt) and cultured in Dulbecco’s Modified Eagle Medium (Invitrogen-Life Technologies, Carlsbad, CA, USA) with 1% antibiotic solution (streptomycin–penicillin) plus 10% fetal bovine serum (Hyclone) in a 5% (v/v) humidified CO2 incubator at 37 °C.
Firstly, cells were kept in a humidified atmosphere (37 °C, 24 h), and then incubated with serial concentrations of the tested compounds. After 48 h, the medium was aspirated, and then cells were incubated with 5% MTT solution (M-5655; Sigma Aldrich, St. Louis, MO USA) (200 µL/well, 2 h), allowing the dye to metabolize into the colored insoluble formazan complex that was then dissolved in the appropriate solubilization solution (M-8910) (200 µL/well), for 30 min with gentle mixing at room temperature. The UV absorbance was measured using a microplate reader (570 nm), and cell viability was determined with respect to untreated control cells. […] The values were means ± sd; n = 3.

MCF-7 cells [2] = assay: Cell cycle analysis by flow cytometry (propidium iodide); type: cell-based, human; settings: MCF-7, treated at IC50, 48 h
Protocol: VIIb-treated cells were subjected to cell cycle phase distribution analysis as well as apoptosis rates determination by flow cytometric analysis in MCF-7 cells, as reported.
Control and VIIb-treated (IC50 µM, 48 h) MCF-7 cells were harvested and then subjected to cell cycle analysis by flow cytometry.
Cell cycle analysis and apoptosis rates following VIIb treatment were investigated using a Propidium Iodide Flow Cytometry Kit (ab139418; Abcam, Cambridge, UK) and Annexin V-FITC apoptosis kit (Catalog: K101-25; BioVision Research Products, San Francisco, CA, USA), respectively, following the manufacturer’s instructions as stated by a previous study.

PI3K δ = settings: cited from earlier work
PI3K α = settings: cited from earlier work
PI3K β = settings: Figure 1, pan PI3K inhibitor; cited from earlier work
[3] = system: MCF 10 non-tumorigenic epithelial cell line; assay: MTT assay in non-cancerous epithelial cells (MCF 10); type: cell-based; settings: for IC50: Homo sapiens, MCF10, MTT assay, non-cancerous epithelial cells, means ± sd, n = 3; for Selectivity Index MCF-10/MCF-7: ratio of IC50 MCF-10 to IC50 MCF-7
Protocol: as §1
Firstly, cells were kept in a humidified atmosphere (37 °C, 24 h), and then incubated with serial concentrations of the tested compounds. After 48 h, the medium was aspirated, and then cells were incubated with 5% MTT solution (M-5655; Sigma Aldrich, St. Louis, MO USA) (200 µL/well, 2 h), allowing the dye to metabolize into the colored insoluble formazan complex that was then dissolved in the appropriate solubilization solution (M-8910) (200 µL/well), for 30 min with gentle mixing at room temperature. The UV absorbance was measured using a microplate reader (570 nm), and cell viability was determined with respect to untreated control cells.

Akt-1 = biological target: T1, Akt-1 (Homo sapiens, UniProt P31749); assay: Akt Kinase Activity assay kit; type: biochemical; settings: means ± sd, n = 3; read-out: IC50 (µM) Akt-1 Isoform
T1 construct: purchased Abcam ab139436
T1 sequence (P31749 whole entry, species assumed, canonical isoform): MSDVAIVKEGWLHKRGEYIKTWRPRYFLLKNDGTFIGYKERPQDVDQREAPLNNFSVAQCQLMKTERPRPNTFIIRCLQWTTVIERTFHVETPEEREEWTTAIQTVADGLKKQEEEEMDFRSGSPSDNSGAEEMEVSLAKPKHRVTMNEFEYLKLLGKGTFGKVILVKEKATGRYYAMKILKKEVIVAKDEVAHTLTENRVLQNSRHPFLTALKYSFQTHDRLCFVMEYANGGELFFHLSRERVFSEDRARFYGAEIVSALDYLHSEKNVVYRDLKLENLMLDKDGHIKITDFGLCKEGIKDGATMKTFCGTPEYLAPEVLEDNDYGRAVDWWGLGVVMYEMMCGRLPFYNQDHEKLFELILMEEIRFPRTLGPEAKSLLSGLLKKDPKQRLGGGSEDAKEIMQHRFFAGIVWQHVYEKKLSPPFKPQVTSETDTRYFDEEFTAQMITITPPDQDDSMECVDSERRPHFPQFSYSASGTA
Text: Accumulating evidence highlighted that PI3K signaling pathway upregulation is highly implicated in breast cancer development and disease progression as well as resistance to hormones and cytotoxic therapy. Therefore, it is essential to elucidate the effect of the novel compound, VIIb, on the PI3K/Akt signaling pathway by using in vitro PI3K class 1A enzyme inhibition assay conducted on PI3K-α and PI3K-γ isoforms as well as an Akt-1 enzyme inhibition assay. […] Furthermore, targeting the PI3K-γ isoform in breast cancer could contribute to enhancing the anti-tumor immunity.
The in vitro inhibition of PI3K and Akt kinase activities by VIIb was assessed using a PI3Kα (p110α/p85) assay kit (Catalog #79781; BPS Bioscience, Inc, San Diego, CA, USA), PI3Kγ (p110γ/PIK3R5) assay kit (Catalog #79803; BPS Bioscience, Inc, San Diego, CA, USA), and Akt Kinase Activity assay kit (ab139436; Abcam, Cambridge, UK) following the manufacturer’s instructions as described previously. The results were expressed as IC50 values using dose–response curves and linear regression equations. LY294002 compound was taken as the reference compound. The values were means ± sd; n = 3.

Akt = settings: Figure 1, reported Akt inhibitor; cited from earlier work

SMILES: CCOc1ccc2c(C)cc(=O)oc2c1C(C)=NN=C1SCC(=O)N1C (mixture of isomers) [VIIIa, (Z/E)-2-{[1-(7-Ethoxy-4-methylcoumarin-8-yl)-ethylidene]-hydrazono}-3-methyl-thiazolidin-4-one]
- IC50 (MCF-7 cells [1]; 48 h): 20.3 ± 1.06 µM

SMILES: CCOc1ccc2c(C)cc(=O)oc2c1C(C)=NN=C1SCC(=O)N1CC (mixture of isomers) [VIIIb, (Z/E)-2-{[1-(7-Ethoxy-4-methylcoumarin-8-yl)-ethylidene]-hydrazono}-3-ethyl-thiazolidin-4-one]
- IC50 (MCF-7 cells [1]; 48 h): 57.3 ± 2.99 µM
- DNA Content % Pre G1 (MCF-7 cells [2]; control 1.55): 35.25%
- DNA Content % G2/M (MCF-7 cells [2]; control 9.71): 5.59%
- DNA Content % S (MCF-7 cells [2]; control 36.58): 46.02%
- DNA Content % G0/G1 (MCF-7 cells [2]; control 53.71): 48.39%

SMILES: C=CCN1C(=O)CSC1=NN=C(C)c1c(OCC)ccc2c(C)cc(=O)oc12 (mixture of isomers) [VIIIc, (Z/E)-3-Allyl-2-{[1-(7-ethoxy-4-methylcoumarin-8-yl)-ethylidene]-hydrazono}-thiazolidin-4-one]
- IC50 (MCF-7 cells [1]; 48 h): 4.95 ± 0.26 µM

SMILES: CCOc1ccc2c(C)cc(=O)oc2c1C(C)=NN=C1SCC(=O)N1Cc1ccccc1 (mixture of isomers) [VIIId, (Z/E)-3-Benzyl-2-{[1-(7-ethoxy-4-methylcoumarin-8-yl)-ethylidene]-hydrazono}-thiazolidin-4-one]
- IC50 (MCF-7 cells [1]; 48 h): 79.9 ± 4.18 µM

SMILES: CCOc1ccc2c(C)cc(=O)oc2c1C(C)=NN=C1SCC(=O)N1C(=O)c1ccccc1 (mixture of isomers) [VIIIe, (Z/E)-3-Benzoyl-2-{[1-(7-ethoxy-4-methylcoumarin-8-yl)-ethylidene]-hydrazono}-thiazolidin-4-one]
- IC50 (MCF-7 cells [1]; 48 h): 26.4 ± 1.38 µM

SMILES: COc1ccc(-c2nc(N/N=C/c3c[nH]c4ccccc34)nc(N3CCOCC3)c2C#N)cc1 [Compound 1]
- IC50 (PI3K δ; Figure 1, pan PI3K inhibitor): 0.64 µM
- IC50 (PI3K α; Figure 1, pan PI3K inhibitor, read-out: IC50 (α)): 0.96 µM
- IC50 (PI3K β): 0.94 µM

SMILES: O=c1[nH]cc(F)c(=O)[nH]1 [Compound 5-FU, 5-fluorouracil, reference compound]
- IC50 [3]: 36.2 ± 1.89 µM
- Selectivity Index MCF-10/MCF-7 [3]: 1.30
- IC50 (MCF-7 cells [1]; Homo sapiens, MCF7, 48 h): 27.8 ± 1.41 µM

SMILES: O=c1cc(N2CCOCC2)oc2c(-c3ccccc3)cccc12 [LY294002, reference compound]
- IC50 (Akt-1): 3.53 ± 0.18 µM

SMILES: NC1(c2ccc(-c3nc4ccn5c(=O)[nH]nc5c4cc3-c3ccccc3)cc2)CCC1 [MK-2206]
- IC50 (Akt): 0.008 µM

SMILES: CCOc1ccc2c(C)cc(=O)oc2c1/C(C)=N\NC(=S)NC [VIa, (Z/E)-1(1-(7-ethoxy-4-methylcoumarin)ethylidene)-4-methyl-thiosemicarbazone]
- melting point: 202 to 204 °C
- IC50 (MCF-7 cells [1]; Homo sapiens, MCF7, 48 h): 11.1 ± 0.58 µM

SMILES: CCNC(=S)N/N=C(/C)c1c(OCC)ccc2c(C)cc(=O)oc12 [VIb, (Z/E)-1(1-(7-ethoxy-4-methylcoumarin)ethylidene)-4-ethyl-thiosemicarbazone]
- melting point: 183 °C
- IC50 (MCF-7 cells [1]; Homo sapiens, MCF7, 48 h): 38.7 ± 2.09 µM

SMILES: C=CCNC(=S)N/N=C(/C)c1c(OCC)ccc2c(C)cc(=O)oc12 [VIc, (Z/E)-1(1-(7-ethoxy-4-methylcoumarin)ethylidene)-4-allyl-thiosemicarbazone]
- melting point: 100 to 102 °C
- IC50 (MCF-7 cells [1]; Homo sapiens, MCF7, 48 h): 2.72 ± 0.13 µM

SMILES: CCOc1ccc2c(C)cc(=O)oc2c1/C(C)=N\NC(=S)NCc1ccccc1 [VId, (Z/E)-1(1-(7-ethoxy-4-methylcoumarin)ethylidene)-4-benzyl-thiosemicarbazone]
- melting point: 140 to 143 °C
- IC50 (MCF-7 cells [1]; Homo sapiens, MCF7, 48 h): 2.61 ± 0.14 µM

SMILES: CCOc1ccc2c(C)cc(=O)oc2c1/C(C)=N\NC(=S)NC(=O)c1ccccc1 [VIe, (Z/E)-1(1-(7-ethoxy-4-methylcoumarin)ethylidene)-4-benzoyl-thiosemicarbazone]
- melting point: 220 to 223 °C
- IC50 (MCF-7 cells [1]; Homo sapiens, MCF7, 48 h): 43.1 ± 2.25 µM

SMILES: CCOc1ccc2c(C)cc(=O)oc2c1/C(C)=N\NC(=S)Nc1ccc(OC)cc1 [VIf]
- IC50 [3]: 20.1 ± 1.05 µM
- Selectivity Index MCF-10/MCF-7 [3]: 16.61
- IC50 (MCF-7 cells [1]; Homo sapiens, MCF7, 48 h): 1.21 ± 0.06 µM

SMILES: C/C(=N/NC(=S)NCc1ccccc1)c1c(O)ccc2c(C)cc(=O)oc12 [Va]
- IC50 (MCF-7 cells [1]; Homo sapiens, MCF7, 48 h): 5.13 ± 0.28 µM

SMILES: C/C(=N/NC(=S)NC(=O)c1ccccc1)c1c(O)ccc2c(C)cc(=O)oc12 [Vb]
- IC50 (MCF-7 cells [1]; Homo sapiens, MCF7, 48 h): 47.3 ± 2.47 µM
